In PubChem BioAssay AID248 (DTP/NCI, 2004) one finds T/C data, which are given here for 11 molecules.

This assay concerns L1210 leukemia ip in BDF1 mice, survival T/C. Put plainly: NCI In Vivo Anticancer Drug Screen. Data for tumor model L1210 Leukemia (intraperitoneal) in B6D2F1 (BDF1) mice. Conditions: higher = longer survival. In short, it runs like this:
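Tumor cells were implanted, animals were treated, and survival was followed. The result divides the treated measurement by the vehicle-control measurement.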

[1] abbreviates: endpoint: mean survival time, dose: 100.0 mg/kg/injection, schedule: Q01DX009 (ip), vehicle: saline.
Where [2] appears, read: endpoint: mean survival time, dose: 400.0 mg/kg/injection, schedule: Q04DX003 (ip), vehicle: Klucel (hydroxypropylcellulose) (HPC).
The mark [3] stands for this setting: endpoint: mean survival time, dose: 100.0 mg/kg/injection, schedule: Q01DX009 (ip), vehicle: saline with Tween-80.
Where [4] appears, read: endpoint: mean survival time, dose: 200.0 mg/kg/injection, schedule: Q01DX009 (ip), vehicle: saline with Tween-80.
Where [5] appears, read: endpoint: mean survival time, dose: 100.0 mg/kg/injection, schedule: Q04DX003 (ip), vehicle: saline with Tween-80.
The mark [6] stands for this setting: endpoint: mean survival time, dose: 50.0 mg/kg/injection, schedule: Q01DX001 (ip), vehicle: saline.
Where [7] appears, read: endpoint: mean survival time, dose: 100.0 mg/kg/injection, schedule: Q01DX001 (ip), vehicle: saline.

SMILES strings stand for the structures. “And” between values parts separate entries of the source, which are not always exact repeats. Equal values may be shown once. Toxic doses and inconclusive results are not listed.

Consider `CCN(CC)CCOC(=O)C(c1ccccc1)C1CCCCC1` (centres undefined), for which the T/C is, setting by setting: (endpoint: mean survival time, dose: 6.25 mg/kg/injection, schedule: Q01DX009 (ip), vehicle: saline) 105 % of control; (endpoint: mean survival time, dose: 12.5 mg/kg/injection, schedule: Q01DX009 (ip), vehicle: saline) 95 % of control; (endpoint: mean survival time, dose: 25.0 mg/kg/injection, schedule: Q01DX009 (ip), vehicle: saline) 95 % of control; (endpoint: mean survival time, dose: 50.0 mg/kg/injection, schedule: Q01DX009 (ip), vehicle: saline) 103 % of control; under setting [1], 103 % of control.

`CN(C)CCN1C(=O)c2ccccc2C(C(C)(C)[N+](=O)[O-])c2ccccc21` (centres undefined): the T/C was 102 % of control (endpoint: mean survival time, dose: 100.0 mg/kg/injection, schedule: Q04DX003 (ip), vehicle: Klucel (hydroxypropylcellulose) (HPC)); 98 % of control (endpoint: mean survival time, dose: 200.0 mg/kg/injection, schedule: Q04DX003 (ip), vehicle: Klucel (hydroxypropylcellulose) (HPC)); 93 % of control under setting [2].

As to `O=C(NNc1ccccc1)C(O)C(O)C(O)C(O)CO` (centres undefined), the T/C was 100 % of control under setting [3]; 96 % of control under setting [4]; 104 % of control (endpoint: mean survival time, dose: 400.0 mg/kg/injection, schedule: Q01DX009 (ip), vehicle: saline with Tween-80).

Consider `Clc1nc2nc(Cl)n(Cl)c2nc1Cl`, for which the T/C (endpoint: mean survival time, dose: 50.0 mg/kg/injection, schedule: Q01DX009 (ip), vehicle: saline with Tween-80) is 96 % of control; the T/C under setting [3] is 95 % of control; the T/C under setting [5] is 98 % of control; the T/C under setting [4] was 91 % of control; the T/C (endpoint: mean survival time, dose: 200.0 mg/kg/injection, schedule: Q04DX003 (ip), vehicle: saline with Tween-80) was 89 % of control; the T/C (endpoint: mean survival time, dose: 400.0 mg/kg/injection, schedule: Q04DX003 (ip), vehicle: saline with Tween-80) is 96 % of control.

`C1CN(CCN2CCOCC2)CCO1`: the T/C by setting is: under setting [1], 100 % of control; (endpoint: mean survival time, dose: 200.0 mg/kg/injection, schedule: Q01DX009 (ip), vehicle: saline) 93 % of control; (endpoint: mean survival time, dose: 400.0 mg/kg/injection, schedule: Q01DX009 (ip), vehicle: saline) 96 % of control.

In the case of `Cc1cc(N=CN(C)C)c2ccccc2n1`, the T/C reads like this: (endpoint: mean survival time, dose: 25.0 mg/kg/injection, schedule: Q01DX001 (ip), vehicle: saline with Tween-80) 102 % of control; (endpoint: mean survival time, dose: 50.0 mg/kg/injection, schedule: Q01DX001 (ip), vehicle: saline with Tween-80) 101 % of control; (endpoint: mean survival time, dose: 50.0 mg/kg/injection, schedule: Q04DX003 (ip), vehicle: saline with Tween-80) 108 % of control; under setting [5], 98 % of control.

For the molecule `O=S(=O)(F)c1ccc(CBr)cc1`, the T/C reads like this: (endpoint: mean survival time, dose: 25.0 mg/kg/injection, schedule: Q01DX001 (ip), vehicle: saline) 113 % of control; under setting [6], 123 % of control; under setting [7], 95 % of control and 98 % of control.

`CCCCCCCCCCCCCC(=O)OC1C(CO)OC2C1Oc1nc(=N)ccn12` (centres undefined): the T/C is, setting by setting: (endpoint: mean survival time, dose: 25.0 mg/kg/injection, schedule: Q01DX009 (ip), vehicle: other) 152 % of control; (endpoint: mean survival time, dose: 50.0 mg/kg/injection, schedule: Q01DX009 (ip), vehicle: other) 171 % of control; (endpoint: mean survival time, dose: 100.0 mg/kg/injection, schedule: Q01DX009 (ip), vehicle: other) 214 % of control; (endpoint: mean survival time, dose: 200.0 mg/kg/injection, schedule: Q01DX009 (ip), vehicle: other) 179 % of control.

On to `C=NNC(=O)c1ccc(OC)cc1`, for which the T/C was 96 % of control (endpoint: mean survival time, dose: 50.0 mg/kg/injection, schedule: Q01DX001 (ip), vehicle: carboxymethylcellulose (CMC)); 96 % of control (endpoint: mean survival time, dose: 100.0 mg/kg/injection, schedule: Q01DX001 (ip), vehicle: carboxymethylcellulose (CMC)); 93 % of control (endpoint: mean survival time, dose: 200.0 mg/kg/injection, schedule: Q01DX001 (ip), vehicle: carboxymethylcellulose (CMC)); 93 % of control (endpoint: mean survival time, dose: 400.0 mg/kg/injection, schedule: Q01DX001 (ip), vehicle: carboxymethylcellulose (CMC)).

As for `Cc1cc(NCCCCCCNc2cc(C)nc3ccc(N)cc23)c2cc(N)ccc2n1`, the T/C (endpoint: mean survival time, dose: 4.7 mg/kg/injection, schedule: Q01DX009 (ip), vehicle: saline with Tween-80) was 117 % of control; the T/C (endpoint: mean survival time, dose: 16.5 mg/kg/injection, schedule: Q01DX009 (ip), vehicle: saline) was 118 % of control; the T/C (endpoint: mean survival time, dose: 18.75 mg/kg/injection, schedule: Q01DX009 (ip), vehicle: saline with Tween-80) is 152 % of control; the T/C (endpoint: mean survival time, dose: 37.5 mg/kg/injection, schedule: Q01DX009 (ip), vehicle: saline with Tween-80) was 176 % of control; the T/C (endpoint: mean survival time, dose: 37.5 mg/kg/injection, schedule: Q01DX009 (ip), vehicle: saline) is 164 % of control; the T/C (endpoint: mean survival time, dose: 75.0 mg/kg/injection, schedule: Q01DX009 (ip), vehicle: acetone) is 160 % of control. Besides, the T/C is, setting by setting: (endpoint: mean survival time, dose: 75.0 mg/kg/injection, schedule: Q01DX009 (ip), vehicle: saline with Tween-80) 150 % of control; (endpoint: mean survival time, dose: 75.0 mg/kg/injection, schedule: Q01DX009 (ip), vehicle: saline) 182 % of control; (endpoint: mean survival time, dose: 150.0 mg/kg/injection, schedule: Q01DX009 (ip), vehicle: acetone) 161 % of control; (endpoint: mean survival time, dose: 150.0 mg/kg/injection, schedule: Q01DX009 (ip), vehicle: saline with Tween-80) 102 % of control; (endpoint: mean survival time, dose: 180.0 mg/kg/injection, schedule: Q04DX003 (ip), vehicle: Klucel (hydroxypropylcellulose) (HPC)) 160 % of control; (endpoint: mean survival time, dose: 180.0 mg/kg/injection, schedule: Q04DX003 (ip), vehicle: saline with Tween-80) 152 % of control. For the same molecule, the T/C reads like this: (endpoint: mean survival time, dose: 266.0 mg/kg/injection, schedule: Q04DX003 (ip), vehicle: saline with Tween-80) 111 % of control; (endpoint: mean survival time, dose: 300.0 mg/kg/injection, schedule: Q01DX009 (ip), vehicle: saline with Tween-80) 94 % of control; under setting [2], 172 % of control; (endpoint: mean survival time, dose: 600.0 mg/kg/injection, schedule: Q04DX003 (ip), vehicle: Klucel (hydroxypropylcellulose) (HPC)) 197 % of control; (endpoint: mean survival time, dose: 600.0 mg/kg/injection, schedule: Q04DX003 (ip), vehicle: saline with Tween-80) 198 % of control; (endpoint: median survival time, dose: 4.0 mg/kg/injection, schedule: Q01DX001 (ip), vehicle: lactic acid) 101 % of control. For the same molecule, the T/C was 100 % of control (endpoint: median survival time, dose: 8.0 mg/kg/injection, schedule: Q01DX001 (ip), vehicle: lactic acid); 103 % of control (endpoint: median survival time, dose: 16.0 mg/kg/injection, schedule: Q01DX001 (ip), vehicle: lactic acid); 97 % of control (endpoint: median survival time, dose: 16.0 mg/kg/injection, schedule: Q01DX001 (oral), vehicle: citric acid); 100 % of control (endpoint: median survival time, dose: 16.0 mg/kg/injection, schedule: Q01DX001 (oral), vehicle: lactic acid); 111 % of control (endpoint: median survival time, dose: 32.0 mg/kg/injection, schedule: Q01DX001 (ip), vehicle: lactic acid); 103 % of control (endpoint: median survival time, dose: 32.0 mg/kg/injection, schedule: Q01DX001 (oral), vehicle: citric acid). The T/C (endpoint: median survival time, dose: 32.0 mg/kg/injection, schedule: Q01DX001 (oral), vehicle: lactic acid) was 100 % of control; the T/C (endpoint: median survival time, dose: 64.0 mg/kg/injection, schedule: Q01DX001 (ip), vehicle: Klucel (hydroxypropylcellulose) (HPC)) was 120 % of control; the T/C (endpoint: median survival time, dose: 64.0 mg/kg/injection, schedule: Q01DX001 (oral), vehicle: citric acid) is 102 % of control; the T/C (endpoint: median survival time, dose: 64.0 mg/kg/injection, schedule: Q01DX001 (oral), vehicle: lactic acid) was 103 % of control; the T/C (endpoint: median survival time, dose: 128.0 mg/kg/injection, schedule: Q01DX001 (ip), vehicle: Klucel (hydroxypropylcellulose) (HPC)) is 153 % of control; the T/C (endpoint: median survival time, dose: 128.0 mg/kg/injection, schedule: Q01DX001 (oral), vehicle: citric acid) is 97 % of control. For the same molecule, the T/C was 95 % of control (endpoint: median survival time, dose: 128.0 mg/kg/injection, schedule: Q01DX001 (oral), vehicle: lactic acid); 175 % of control (endpoint: median survival time, dose: 256.0 mg/kg/injection, schedule: Q01DX001 (ip), vehicle: Klucel (hydroxypropylcellulose) (HPC)); 87 % of control (endpoint: median survival time, dose: 256.0 mg/kg/injection, schedule: Q01DX001 (oral), vehicle: citric acid); 94 % of control (endpoint: median survival time, dose: 256.0 mg/kg/injection, schedule: Q01DX001 (oral), vehicle: lactic acid); 180 % of control (endpoint: median survival time, dose: 512.0 mg/kg/injection, schedule: Q01DX001 (ip), vehicle: Klucel (hydroxypropylcellulose) (HPC)).

On to `COc1ccc(C(=O)/C=C/c2ccccc2)c(O)c1`, for which the T/C runs as follows: under setting [6], 98 % of control; under setting [7], 102 % of control; (endpoint: mean survival time, dose: 200.0 mg/kg/injection, schedule: Q01DX001 (ip), vehicle: saline) 102 % of control; (endpoint: mean survival time, dose: 400.0 mg/kg/injection, schedule: Q01DX001 (ip), vehicle: saline) 98 % of control.
